Results: patent US7018836B1, “P-TEFb compositions, methods and screening assays” (priority 1996, dated 2006)

Legend:
[1] = tested on: transcription in Drosophila extract depleted of P-TEFb; assay: Transcription activity of recombinant protein added into Drosophila extract depleted of P-TEFb (Table 1); format: biochemical
[2] = tested on: RNA polymerase II; assay: Kinase assay of recombinant P-TEFb subunits with RNA polymerase II as substrate (Table 1); format: biochemical, Drosophila
Procedure: 0.4 μl of purified RNA polymerase II and various protein samples were mixed in 18 μl of 55 mM HMK. The reaction was then initiated by the addition of 2 μl of a solution containing 2 μCi of [γ-^32P]ATP (ICN) and unlabeled ATP at 10 μM, or only unlabeled ATP at concentrations from 1 to 100 μM or other NTPs or dNTPs at concentrations of 1 to 100 μM. Reactions were incubated for the indicated times at 23° C. and then terminated with SDS loading buffer. Samples were analyzed on a 6–15% SDS polyacrylamide gel which was silver stained, dried and subjected to autoradiography if the assay contained label.
Using the CTD Kinase assay, as previously described in Example 2, Section A.7, both HBL1-1 (SEQ ID NO:45), HBL2(SEQ ID NO:47) and HBL3 (SEQ ID NO:50) were substituted for the large subunit in the Drosophila transcription system. Alone “PITARLE” has little kinase activity and no detectable activity in transcription.

[3] = target: T1, RNA polymerase II (Drosophila melanogaster, UniProt P04052); assay: Immobilized template add-back assay, elongation by isolated early elongation complexes; format: biochemical; settings: added prior to the chase
T1 construct: endogenous in cells; host or cells: Drosophila Kc cell nuclear extract; washed early elongation complexes on immobilized actin A2 template
T1 sequence (P04052 whole entry): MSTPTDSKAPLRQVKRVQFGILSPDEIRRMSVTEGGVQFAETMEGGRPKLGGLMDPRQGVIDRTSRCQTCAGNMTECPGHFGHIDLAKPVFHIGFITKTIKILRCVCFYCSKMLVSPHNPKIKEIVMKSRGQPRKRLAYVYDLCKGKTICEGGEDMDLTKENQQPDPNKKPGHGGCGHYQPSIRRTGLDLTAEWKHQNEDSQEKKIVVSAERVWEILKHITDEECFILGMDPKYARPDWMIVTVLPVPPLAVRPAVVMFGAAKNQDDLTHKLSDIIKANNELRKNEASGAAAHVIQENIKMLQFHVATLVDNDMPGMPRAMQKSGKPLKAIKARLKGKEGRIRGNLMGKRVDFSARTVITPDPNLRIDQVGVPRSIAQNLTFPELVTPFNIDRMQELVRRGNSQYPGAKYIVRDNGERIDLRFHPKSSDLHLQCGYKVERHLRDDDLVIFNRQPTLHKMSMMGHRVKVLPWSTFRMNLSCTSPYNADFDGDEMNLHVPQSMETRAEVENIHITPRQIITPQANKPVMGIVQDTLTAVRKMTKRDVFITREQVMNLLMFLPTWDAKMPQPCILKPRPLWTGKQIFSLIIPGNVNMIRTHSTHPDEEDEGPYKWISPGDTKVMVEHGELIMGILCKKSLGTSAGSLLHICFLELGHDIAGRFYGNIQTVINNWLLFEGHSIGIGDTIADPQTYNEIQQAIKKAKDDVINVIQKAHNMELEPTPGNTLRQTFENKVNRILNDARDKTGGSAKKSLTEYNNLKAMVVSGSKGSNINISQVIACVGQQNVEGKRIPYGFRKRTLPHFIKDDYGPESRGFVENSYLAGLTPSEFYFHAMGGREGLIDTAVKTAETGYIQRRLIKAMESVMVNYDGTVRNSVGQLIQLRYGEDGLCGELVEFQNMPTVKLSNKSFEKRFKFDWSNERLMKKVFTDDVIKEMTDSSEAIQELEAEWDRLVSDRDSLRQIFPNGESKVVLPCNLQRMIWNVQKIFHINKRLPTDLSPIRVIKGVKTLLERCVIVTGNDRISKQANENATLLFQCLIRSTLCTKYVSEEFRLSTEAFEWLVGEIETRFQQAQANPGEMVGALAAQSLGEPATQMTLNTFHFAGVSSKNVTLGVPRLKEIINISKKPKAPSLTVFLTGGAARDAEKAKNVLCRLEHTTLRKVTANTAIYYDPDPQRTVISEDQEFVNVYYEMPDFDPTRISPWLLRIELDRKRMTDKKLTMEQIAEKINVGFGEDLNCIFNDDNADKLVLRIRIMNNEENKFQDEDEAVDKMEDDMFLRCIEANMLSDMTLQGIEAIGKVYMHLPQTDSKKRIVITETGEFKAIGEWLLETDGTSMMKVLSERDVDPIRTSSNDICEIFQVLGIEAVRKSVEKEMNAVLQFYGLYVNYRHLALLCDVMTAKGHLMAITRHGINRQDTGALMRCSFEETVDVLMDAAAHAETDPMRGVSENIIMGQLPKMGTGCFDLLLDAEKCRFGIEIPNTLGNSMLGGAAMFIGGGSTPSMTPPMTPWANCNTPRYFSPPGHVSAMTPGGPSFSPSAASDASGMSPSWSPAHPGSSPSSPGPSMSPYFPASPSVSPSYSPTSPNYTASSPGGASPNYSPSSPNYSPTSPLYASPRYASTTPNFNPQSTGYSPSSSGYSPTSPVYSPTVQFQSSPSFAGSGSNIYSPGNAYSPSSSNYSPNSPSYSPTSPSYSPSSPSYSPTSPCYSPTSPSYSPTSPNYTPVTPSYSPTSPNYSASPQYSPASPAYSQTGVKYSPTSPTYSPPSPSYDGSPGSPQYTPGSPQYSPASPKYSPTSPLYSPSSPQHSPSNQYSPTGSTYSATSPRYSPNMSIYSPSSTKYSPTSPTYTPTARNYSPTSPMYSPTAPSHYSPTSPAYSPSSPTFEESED
Procedure: Since P-TEF was first identified using an immobilized template assay, the ability of HeLa NE to generate DRB-sensitive elongation complexes when added back to isolated EECs was examined. Drosophila actin A2 DNA template and Kc cell NE was used to form EECs containing Drosophila RNA polymerase II. An immobilized A2 template was preincubated with Kc cell NE and then pulsed for 30 sec with [α-^32P] CTP. The resulting EECs were isolated, and washed. Only short transcripts were produced during the pulse and the labeled […] were removed by the washing protocol. […] However, addition of Kc cell NE to the chase, allowed some EECs to enter productive elongation and make long DRB-sensitive transcripts. When a HeLa NE that was capable of producing high levels of DRB-sensitive transcription was added to the chase, DRB-sensitive transcripts were also produced.

Substance | Transcription activity [1] | Kinase activity ([2]; RNA polymerase II as substrate) | stimulation of the activity of PITALRE by the cyclin subunit ([2]; phosphorylation of the CTD of RNA polymerase II) | elongation by all EECs [3]
PITALRE: human P-TEFb small (kinase) subunit, SEQ ID NO:6, HIS-tagged, baculovirus expressed | none | very little | approximately 100 fold | –
α-amanitin | – | – | – | inhibited
